Experimental findings from patent US10221179B2, “Substituted pyrazoloquinazolinones and pyrroloquinazolinones as allosteric modulators of group II metabotropic glutamate receptors” (DOMAIN THERAPEUTICS, priority 2014, dated 2019) are described below.

Counter-ions that a name gives are not always drawn.

Usually melting point stands for the temperature, or range, at which the solid turns liquid. `Cl.Cn1c(=O)c2cc(OCCN3CCOCC3)ccc2n2nc(-c3ccnc(C(F)(F)F)c3)cc12` had a melting point greater than 250 °C. The compound `CN1CCN(c2ccc3c(=O)n(C)c4cc(-c5ccnc(C(F)(F)F)c5)nn4c3c2)CC1.Cl` yielded a melting point greater than 250 °C. The compound `Cl.Cn1c(=O)c2ccc(N3CCNCC3)cc2n2nc(-c3ccnc(C(F)(F)F)c3)cc12` returned a melting point greater than 250 °C. Take `Cl.Cn1c(=O)c2ccccc2n2nc(-c3ccnc(C4CCCC4)c3)cc12`: the melting point was greater than 250 °C. In turn, `Cl.Cn1c(=O)c2ccccc2n2nc(-c3ccnc(C4CCCCC4)c3)cc12` displayed a melting point greater than 250 °C. As for `COc1ccc2c(c1)c(=O)n(C)c1cc(-c3ccnc(C4CC4)c3)nn21` (as salt: HCl) [Example 100, 2-(2-Cyclopropyl-pyridin-4-yl)-7-methoxy-4-methyl-4H-pyrazolo[1,5-a]quinazolin-5-one], the figure is 230 to 240 °C; as for `Cn1c(=O)c2ccccc2n2nc(-c3ccncc3)cc12` (as salt: HCl) [Example 104, 4-Methyl-2-pyridin-4-yl-4H-pyrazolo[1,5-a]quinazolin-5-one], greater than 250 °C. With `Cc1cc(-c2cc3n(C)c(=O)c4ccccc4n3n2)cc(C2CC2)n1` (as salt: HCl) [Example 106, 2-(2-Cyclopropyl-6-methyl-pyridin-4-yl)-4-methyl-4H-pyrazolo[1,5-a]quinazolin-5-one] the figure was greater than 250 °C; with `Cn1c(=O)c2ccccc2n2nc(-c3ccnc(OC4COC4)c3)cc12` [Example 18, 4-Methyl-2-[2-(oxetan-3-yloxy)-pyridin-4-yl]-4H-pyrazolo[1,5-a]quinazolin-5-one], 219 to 223 °C; with `COCCOc1cc(-c2cc3n(C)c(=O)c4ccccc4n3n2)ccn1` [Example 20, 2-[2-(2-Methoxy-ethoxy)-pyridin-4-yl]-4-methyl-4H-pyrazolo[1,5-a]quinazolin-5-one], 169 to 173 °C. As for `O=c1c2ccccc2n2nc(-c3ccnc(C(F)(F)F)c3)cc2n1CC(F)F` [Example 29, 4-(2,2-Difluoro-ethyl)-2-(2-trifluoromethyl-pyridin-4-yl)-4H-pyrazolo[1,5-a]quinazolin-5-one], the figure is 223 to 230 °C; as for `COCCn1c(=O)c2ccccc2n2nc(-c3ccnc(C(F)(F)F)c3)cc12` [Example 30, 4-(2-Methoxy-ethyl)-2-(2-trifluoromethyl-pyridin-4-yl)-4H-pyrazolo[1,5-a]quinazolin-5-one], 165 to 174 °C; as for `Cn1c(=O)c2cc(C(F)(F)F)ccc2n2nc(-c3ccnc(C(F)(F)F)c3)cc12` [Example 37], 205 to 210 °C.

For the compound `CC(=O)Nc1ccc2c(c1)c(=O)n(C)c1cc(-c3ccnc(C(F)(F)F)c3)nn21` [Example 42, N-[4-Methyl-5-oxo-2-(2-trifluoromethyl-pyridin-4-yl)-4,5-dihydro-pyrazolo[1,5-a]quinazolin-7-yl]-acetamide], the melting point was greater than 250 °C. Turning to `Cn1c(=O)c2cc(N)ccc2n2nc(-c3ccnc(C(F)(F)F)c3)cc12` [Example 43, 7-Amino-4-methyl-2-(2-trifluoromethyl-pyridin-4-yl)-4H-pyrazolo[1,5-a]quinazolin-5-one], the melting point was in the range of 245 to 250 °C. Compound `Cn1c(=O)c2cc(NC3CCC3)ccc2n2nc(-c3ccnc(C(F)(F)F)c3)cc12` [Example 46, 7-Cyclobutylamino-4-methyl-2-(2-trifluoromethyl-pyridin-4-yl)-4H-pyrazolo[1,5-a]quinazolin-5-one] had a melting point of 220 to 225 °C. As for `Cn1c(=O)c2cc(N3CCOCC3)ccc2n2nc(-c3ccnc(C(F)(F)F)c3)cc12` [Example 47, 4-Methyl-7-morpholin-4-yl-2-(2-trifluoromethyl-pyridin-4-yl)-4H-pyrazolo[1,5-a]quinazolin-5-one], the figure is 149 to 163 °C; as for `COCCOc1ccc2c(c1)c(=O)n(C)c1cc(-c3ccnc(C(F)(F)F)c3)nn21` [Example 50, 7-(2-Methoxy-ethoxy)-4-methyl-2-(2-trifluoromethyl-pyridin-4-yl)-4H-pyrazolo[1,5-a]quinazolin-5-one], 182 to 189 °C. In the case of `Cn1c(=O)c2cc(OC(F)(F)F)ccc2n2nc(-c3ccnc(C(F)(F)F)c3)cc12` [Example 52, 4-Methyl-7-trifluoromethoxy-2-(2-trifluoromethyl-pyridin-4-yl)-4H-pyrazolo[1,5-a]quinazolin-5-one], the melting point lay in the range of 240 to 245 °C. `Cn1c(=O)c2cc(S(C)(=O)=O)ccc2n2nc(-c3ccnc(C(F)(F)F)c3)cc12` [Example 53, 7-Methanesulfonyl-4-methyl-2-(2-trifluoromethyl-pyridin-4-yl)-4H-pyrazolo[1,5-a]quinazolin-5-one] gave a melting point greater than 250 °C. Compound `COc1ccc2c(=O)n(C)c3cc(-c4ccnc(C(F)(F)F)c4)nn3c2c1` [Example 54, 8-Methoxy-4-methyl-2-(2-trifluoromethyl-pyridin-4-yl)-4H-pyrazolo[1,5-a]quinazolin-5-one] gave a melting point greater than 250 °C. The compound `Cn1c(=O)c2ccc(N3CCOCC3)cc2n2nc(-c3ccnc(C(F)(F)F)c3)cc12` [Example 59, 4-Methyl-8-morpholin-4-yl-2-(2-trifluoromethyl-pyridin-4-yl)-4H-pyrazolo[1,5-a]quinazolin-5-one] gave a melting point greater than 250 °C.

For the compound `Cn1c(=O)c2ccc(N3CCCC3)cc2n2nc(-c3ccnc(C(F)(F)F)c3)cc12` [Example 60, 4-Methyl-8-pyrrolidin-1-yl-2-(2-trifluoromethyl-pyridin-4-yl)-4H-pyrazolo[1,5-a]quinazolin-5-one], the melting point is greater than 250 °C. As to `COC1CCN(c2ccc3c(=O)n(C)c4cc(-c5ccnc(C(F)(F)F)c5)nn4c3c2)CC1` [Example 62, 8-(4-Methoxy-piperidin-1-yl)-4-methyl-2-(2-trifluoromethyl-pyridin-4-yl)-4H-pyrazolo[1,5-a]quinazolin-5-one], the melting point is greater than 250 °C.

On to `Cn1c(=O)c2ccc(N3CCC(CO)CC3)cc2n2nc(-c3ccnc(C(F)(F)F)c3)cc12` [Example 67, 8-(4-Hydroxymethyl-piperidin-1-yl)-4-methyl-2-(2-trifluoromethyl-pyridin-4-yl)-4H-pyrazolo[1,5-a]quinazoin-5-one], for which the melting point is 205 to 210 °C.

`Cn1c(=O)c2ccc(N3CC(CO)C3)cc2n2nc(-c3ccnc(C(F)(F)F)c3)cc12` [Example 69, 8-(3-Hydroxymethyl-azetidin-1-yl)-4-methyl-2-(2-trifluoromethyl-pyridin-4-yl)-4H-pyrazolo[1,5-a]quinazolin-5-one] had a melting point greater than 250 °C.

In turn, `Cn1c(=O)c2ccc(N3CCC(C)(O)CC3)cc2n2nc(-c3ccnc(C(F)(F)F)c3)cc12` [Example 71, 8-(4-Hydroxy-4-methyl-piperidin-1-yl)-4-methyl-2-(2-trifluoromethyl-pyridin-4-yl)-4H-pyrazolo[1,5-a]quinazolin-5-one] returned a melting point greater than 250 °C.

In turn, `Cc1ccc2c(=O)n(C)c3cc(-c4ccnc(C(F)(F)F)c4)nn3c2c1` [Example 72, 4,8-Dimethyl-2-(2-trifluoromethyl-pyridin-4-yl)-4H-pyrazolo[1,5-a]quinazolin-5-one] gave a melting point greater than 250 °C. With `Cn1c(=O)c2ccc(C3CC3)cc2n2nc(-c3ccnc(C(F)(F)F)c3)cc12` [Example 73, 8-Cyclopropyl-4-methyl-2-(2-trifluoromethyl-pyridin-4-yl)-4H-pyrazolo[1,5-a]quinazolin-5-one] the figure was greater than 250 °C. Regarding `Cn1c(=O)c2ccc(C3CCCC3)cc2n2nc(-c3ccnc(C(F)(F)F)c3)cc12` [Example 74, 8-Cyclopentyl-4-methyl-2-(2-trifluoromethyl-pyridin-4-yl)-4H-pyrazolo[1,5-a]quinazolin-5-one], the melting point was in the range of 246 to 250 °C. On to `Cn1c(=O)c2ccc(C#N)cc2n2nc(-c3ccnc(C(F)(F)F)c3)cc12` [Example 75, 4-Methyl-5-oxo-2-(2-trifluoromethyl-pyridin-4-yl)-4,5-dihydro-pyrazolo[1,5-a]quinazoline-8-carbonitrile], for which the melting point is greater than 250 °C. Compound `Cn1c(=O)c2ccc(C(=O)O)cc2n2nc(-c3ccnc(C(F)(F)F)c3)cc12` [Example 76, 4-Methyl-5-oxo-2-(2-trifluoromethyl-pyridin-4-yl)-4,5-dihydro-pyrazolo[1,5-a]quinazoline-8-carboxylic Acid] registered a melting point greater than 250 °C.

The compound `Cn1c(=O)c2ccc(OCCO)cc2n2nc(-c3ccnc(C(F)(F)F)c3)cc12` [Example 83, 8-(2-Hydroxy-ethoxy)-4-methyl-2-(2-trifluoromethyl-pyridin-4-yl)-4H-pyrazolo[1,5-a]quinazolin-5-one] gave a melting point of 128 to 134 °C. As for `COc1cccc2c(=O)n(C)c3cc(-c4ccnc(C(F)(F)F)c4)nn3c12` [Example 86, 9-Methoxy-4-methyl-2-(2-trifluoromethyl-pyridin-4-yl)-4H-pyrazolo[1,5-a]quinazolin-5-one], the figure is greater than 250 °C; as for `COc1ccc2c(c1)c(=O)n(C)c1cc(-c3ccnc(F)c3)nn21` [Example 101, 2-(2-Fluoro-pyridin-4-yl)-7-methoxy-4-methyl-4H-pyrazolo[1,5-a]quinazolin-5-one], 235 to 245 °C. For the compound `Cn1cc(-c2cc3n(C)c(=O)c4ccccc4n3n2)cn1` [Example 103, 4-Methyl-2-(1-methyl-1H-pyrazol-4-yl)-4H-pyrazolo[1,5-a]quinazolin-5-one], the melting point fell in the range of 195 to 199 °C. In turn, `Cn1c(=O)c2ccccc2n2nc(-c3ccncc3F)cc12` [Example 107, 2-(3-Fluoro-pyridin-4-yl)-4-methyl-4H-pyrazolo[1,5-a]quinazolin-5-one] returned a melting point of 244 to 247 °C. In turn, `Cc1cnccc1-c1cc2n(C)c(=O)c3ccccc3n2n1` [Example 109, 4-Methyl-2-(3-methyl-pyridin-4-yl)-4H-pyrazolo[1,5-a]quinazolin-5-one] displayed a melting point of 145 to 150 °C. Turning to `Cn1c(=O)c2ccc(OCCCO)cc2n2nc(-c3ccnc(C(F)(F)F)c3)cc12` [Example 111, 8-(3-Hydroxy-propoxy)-4-methyl-2-(2-trifluoromethyl-pyridin-4-yl)-4H-pyrazolo[1,5-a]quinazolin-5-one], the melting point fell in the range of 223 to 226 °C.
